Reference: ChEMBL document CHEMBL1201862, “PubChem BioAssay data set” (2004)
Activity calls are given as the source filed them.

What was measured:
Large T antigen = Large T antigen (Simian virus 40, UniProt P03070); type: functional, Betapolyomavirus macacae;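 note: Confirmatory-stage PubChem screen for compounds that inhibit SV40 T antigen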
[1] = target: T1, Calpain-2 catalytic subunit (Sus scrofa, UniProt P43367); assay: pig calpain II inhibitor potency, dose response, biochemical, fluorogenic peptide substrate (AID 1420); type: functional
T1 sequence (P43367 whole entry): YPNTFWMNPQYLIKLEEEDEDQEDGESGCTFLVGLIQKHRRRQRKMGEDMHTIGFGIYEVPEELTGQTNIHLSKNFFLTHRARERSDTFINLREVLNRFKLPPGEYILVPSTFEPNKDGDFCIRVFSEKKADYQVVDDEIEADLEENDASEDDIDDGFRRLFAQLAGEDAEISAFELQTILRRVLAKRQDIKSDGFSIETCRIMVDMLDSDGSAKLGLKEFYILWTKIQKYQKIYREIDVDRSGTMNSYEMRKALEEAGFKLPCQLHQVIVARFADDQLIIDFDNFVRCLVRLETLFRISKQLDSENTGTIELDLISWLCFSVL

[2] = Shn3 3'UTR reporter inhibitors, dose response, cell-based, Clone20 osteoblasts, firefly luciferase, cherry-picked (AID 624132); type: functional;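 note: firefly luciferase luminescence from reporter carrying the Shn3 3'UTR in osteoblasts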
[3] = control 3'UTR Renilla luciferase suppression, dose response, counter-screen for Shn3 inhibitor project, cell-based, Clone20-Shn3RL, cherry-picked (AID 624133); type: functional
[4] = target: Voltage-dependent T-type calcium channel subunit alpha-1H (Homo sapiens, UniProt O95180); type: functional;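 note: channel activity triggered by adding a high calcium stimulation buffer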
[5] = target: T2, Replicative DNA helicase DnaB (Mycobacterium tuberculosis, UniProt P9WMR3); assay: DnaB intein splicing inhibitors, dose response, biochemical, cell-free fluorescence (AID 449749); type: functional
T2 sequence (P9WMR3 whole entry): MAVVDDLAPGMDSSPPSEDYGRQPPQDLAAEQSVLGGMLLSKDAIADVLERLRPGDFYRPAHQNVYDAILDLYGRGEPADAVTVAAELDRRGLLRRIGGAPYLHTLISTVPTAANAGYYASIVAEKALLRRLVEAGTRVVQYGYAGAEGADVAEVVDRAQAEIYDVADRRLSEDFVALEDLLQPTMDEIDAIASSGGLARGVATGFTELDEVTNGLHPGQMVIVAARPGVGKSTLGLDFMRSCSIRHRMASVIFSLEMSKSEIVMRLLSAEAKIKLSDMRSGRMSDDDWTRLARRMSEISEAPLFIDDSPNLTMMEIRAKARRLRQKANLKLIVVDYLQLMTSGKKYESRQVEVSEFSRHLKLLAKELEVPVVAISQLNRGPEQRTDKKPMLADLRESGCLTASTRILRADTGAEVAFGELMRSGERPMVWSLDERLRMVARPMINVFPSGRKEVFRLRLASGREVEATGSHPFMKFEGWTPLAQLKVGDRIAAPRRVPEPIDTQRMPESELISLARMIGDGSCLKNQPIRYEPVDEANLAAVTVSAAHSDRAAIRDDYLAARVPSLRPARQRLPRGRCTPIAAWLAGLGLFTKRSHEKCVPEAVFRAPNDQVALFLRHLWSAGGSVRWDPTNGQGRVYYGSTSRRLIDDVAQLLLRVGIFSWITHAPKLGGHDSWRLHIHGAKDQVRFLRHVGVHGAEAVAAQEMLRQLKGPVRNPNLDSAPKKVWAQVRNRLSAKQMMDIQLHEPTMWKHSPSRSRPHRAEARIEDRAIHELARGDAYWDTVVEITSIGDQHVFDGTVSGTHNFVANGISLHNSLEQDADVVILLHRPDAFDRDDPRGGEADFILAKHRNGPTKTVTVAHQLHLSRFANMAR

Protein RecA = target: T3, Protein RecA (Mycobacterium tuberculosis, UniProt P9WHJ3); assay: Fluorescence Cell-Free Homogeneous Dose Retest to Identify Inhibitors of RecA-Intein Splicing Activity. [Related pubchem assays (depositor defined):AID2097, AID2223, AID489010, AID492950]; type: functional
T3 sequence (P9WHJ3 whole entry): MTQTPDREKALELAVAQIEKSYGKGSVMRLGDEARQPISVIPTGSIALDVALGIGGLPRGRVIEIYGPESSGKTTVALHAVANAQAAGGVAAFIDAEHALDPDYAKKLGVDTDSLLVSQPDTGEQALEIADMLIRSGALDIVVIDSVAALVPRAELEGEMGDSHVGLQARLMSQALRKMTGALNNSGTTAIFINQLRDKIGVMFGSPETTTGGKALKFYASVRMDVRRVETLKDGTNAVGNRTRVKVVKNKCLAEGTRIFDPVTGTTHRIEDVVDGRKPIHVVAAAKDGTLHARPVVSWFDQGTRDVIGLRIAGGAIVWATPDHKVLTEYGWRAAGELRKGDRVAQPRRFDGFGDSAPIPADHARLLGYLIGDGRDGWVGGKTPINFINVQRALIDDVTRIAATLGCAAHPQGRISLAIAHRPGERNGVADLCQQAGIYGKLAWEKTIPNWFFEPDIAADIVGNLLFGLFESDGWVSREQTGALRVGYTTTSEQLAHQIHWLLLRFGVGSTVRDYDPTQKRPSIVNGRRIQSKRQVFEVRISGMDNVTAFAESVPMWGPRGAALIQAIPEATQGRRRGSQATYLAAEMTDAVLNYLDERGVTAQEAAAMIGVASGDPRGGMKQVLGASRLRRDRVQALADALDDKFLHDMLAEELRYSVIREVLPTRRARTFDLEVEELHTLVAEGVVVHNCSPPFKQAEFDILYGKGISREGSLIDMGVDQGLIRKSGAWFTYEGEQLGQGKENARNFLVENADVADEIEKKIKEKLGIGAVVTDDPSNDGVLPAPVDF

cells [6] = type: functional, cell-based
cells [7] = type: functional, cell-based; remark: listed apart in the source
[8] = HEp-2 cell cytotoxicity, dose response, cytotoxicity control for RSV inhibitor project, HTS (AID 2410); type: functional; conditions: human respiratory syncytial virus
[9] = growth suppression of beta-catenin-knockout colon cells, dose response, cell-based, HCT116, human colon tumor (AID 1045); type: functional;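 note: HCT116 colon tumor cells with beta catenin knocked out; cells exposed to compound for 60 hours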
[10] = Luminescence Cell-Based Dose Retest to Confirm Inhibitors of Cancer Stem Cells. [Related pubchem assays (depositor defined):AID2717, AID2721]; type: functional; conditions: Homo sapiens
[11] = growth suppression of PTEN-null colon cells, dose response, cell-based, HCT116 PTEN knockout (AID 1047); type: functional;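 note: HCT116 colon tumor cells with PTEN knocked out; cells exposed to compound for 60 hours before readout; potency for loss of cell viability measured by luminescence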
Cytochrome P450 3A4 = Cytochrome P450 3A4 (Homo sapiens, UniProt P08684);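 note: CYP3A4 tested as one member of a cytochrome P450 panel screen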
Cytochrome P450 2C19 = Cytochrome P450 2C19 (Homo sapiens, UniProt P33261); assay: Cytochrome panel assay with activity outcomes. Panel member name: p450-cyp2c19 Compounds with AC50 equal or less than 10 uM are considered active; type: functional; conditions: read-out: AC50
[12] = target: T4, Rac GTPase-activating protein 1 (Homo sapiens, UniProt Q9H0H5); assay: MgcRacGAP GTPase-activating activity inhibitors, confirmation, biochemical, ADP Hunter fluorescence, primary and confirmatory (AID 624330); type: functional
T4 sequence (Q9H0H5 whole entry): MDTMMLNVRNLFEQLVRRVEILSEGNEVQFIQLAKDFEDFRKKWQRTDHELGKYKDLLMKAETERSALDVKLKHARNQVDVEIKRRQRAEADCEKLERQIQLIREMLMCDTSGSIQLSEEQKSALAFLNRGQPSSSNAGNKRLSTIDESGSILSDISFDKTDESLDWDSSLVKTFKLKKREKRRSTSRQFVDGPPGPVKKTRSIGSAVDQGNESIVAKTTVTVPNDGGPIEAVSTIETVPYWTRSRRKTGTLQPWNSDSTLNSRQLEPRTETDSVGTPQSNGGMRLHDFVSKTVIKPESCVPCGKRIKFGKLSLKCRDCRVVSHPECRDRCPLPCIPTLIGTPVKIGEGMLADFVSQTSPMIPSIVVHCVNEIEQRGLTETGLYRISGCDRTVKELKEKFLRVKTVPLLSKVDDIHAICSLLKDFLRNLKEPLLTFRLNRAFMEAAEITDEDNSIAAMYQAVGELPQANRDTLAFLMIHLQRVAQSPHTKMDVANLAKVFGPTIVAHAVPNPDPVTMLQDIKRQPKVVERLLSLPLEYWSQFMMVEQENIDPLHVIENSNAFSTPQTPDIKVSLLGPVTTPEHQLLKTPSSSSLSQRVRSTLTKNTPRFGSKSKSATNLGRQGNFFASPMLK

[13] = target: Heat shock protein HSP 90-alpha (Homo sapiens, UniProt P07900); type: functional, organism-based
[14] = Luminescence Cell-Based Dose Response HTS to Identify Inhibitors of 5'UTR Stem-Loop Driven Prion Protein mRNA Translation in H4 Neuroglioblastoma Cells. [Related pubchem assays: 1827 (Project Summary), 1813 (Primary HTS)]; type: functional
[15] = inhibitors of firefly luciferase expression or activity, dose response, H4 neuroglioma cells, luminescence (AID 1990); type: functional, cell-based
[16] = inhibitors of SNCA 5'UTR-driven reporter translation, confirmation, H4 neuroglioma cells, luminescence (AID 1988); type: functional, cell-based

Large T antigen, sequence (P03070 whole entry): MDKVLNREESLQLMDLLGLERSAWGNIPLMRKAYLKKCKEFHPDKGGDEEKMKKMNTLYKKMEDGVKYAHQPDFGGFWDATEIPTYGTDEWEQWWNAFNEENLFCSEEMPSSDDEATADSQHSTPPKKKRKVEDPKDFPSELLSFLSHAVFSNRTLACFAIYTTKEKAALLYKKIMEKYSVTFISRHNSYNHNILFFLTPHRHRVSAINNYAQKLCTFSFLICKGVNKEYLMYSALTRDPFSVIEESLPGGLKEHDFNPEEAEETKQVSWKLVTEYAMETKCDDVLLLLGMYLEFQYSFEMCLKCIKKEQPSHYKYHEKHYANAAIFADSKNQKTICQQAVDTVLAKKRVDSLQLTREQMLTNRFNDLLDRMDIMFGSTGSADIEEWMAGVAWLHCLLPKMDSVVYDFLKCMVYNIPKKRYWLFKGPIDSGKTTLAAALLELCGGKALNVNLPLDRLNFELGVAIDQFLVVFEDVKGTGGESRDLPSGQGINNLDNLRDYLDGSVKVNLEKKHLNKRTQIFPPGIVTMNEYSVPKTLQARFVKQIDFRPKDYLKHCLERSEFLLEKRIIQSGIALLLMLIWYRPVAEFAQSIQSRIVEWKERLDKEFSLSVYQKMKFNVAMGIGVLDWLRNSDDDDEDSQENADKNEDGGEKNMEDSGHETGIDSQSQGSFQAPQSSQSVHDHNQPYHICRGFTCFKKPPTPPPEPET
Voltage-dependent T-type calcium channel subunit alpha-1H, sequence (O95180 whole entry): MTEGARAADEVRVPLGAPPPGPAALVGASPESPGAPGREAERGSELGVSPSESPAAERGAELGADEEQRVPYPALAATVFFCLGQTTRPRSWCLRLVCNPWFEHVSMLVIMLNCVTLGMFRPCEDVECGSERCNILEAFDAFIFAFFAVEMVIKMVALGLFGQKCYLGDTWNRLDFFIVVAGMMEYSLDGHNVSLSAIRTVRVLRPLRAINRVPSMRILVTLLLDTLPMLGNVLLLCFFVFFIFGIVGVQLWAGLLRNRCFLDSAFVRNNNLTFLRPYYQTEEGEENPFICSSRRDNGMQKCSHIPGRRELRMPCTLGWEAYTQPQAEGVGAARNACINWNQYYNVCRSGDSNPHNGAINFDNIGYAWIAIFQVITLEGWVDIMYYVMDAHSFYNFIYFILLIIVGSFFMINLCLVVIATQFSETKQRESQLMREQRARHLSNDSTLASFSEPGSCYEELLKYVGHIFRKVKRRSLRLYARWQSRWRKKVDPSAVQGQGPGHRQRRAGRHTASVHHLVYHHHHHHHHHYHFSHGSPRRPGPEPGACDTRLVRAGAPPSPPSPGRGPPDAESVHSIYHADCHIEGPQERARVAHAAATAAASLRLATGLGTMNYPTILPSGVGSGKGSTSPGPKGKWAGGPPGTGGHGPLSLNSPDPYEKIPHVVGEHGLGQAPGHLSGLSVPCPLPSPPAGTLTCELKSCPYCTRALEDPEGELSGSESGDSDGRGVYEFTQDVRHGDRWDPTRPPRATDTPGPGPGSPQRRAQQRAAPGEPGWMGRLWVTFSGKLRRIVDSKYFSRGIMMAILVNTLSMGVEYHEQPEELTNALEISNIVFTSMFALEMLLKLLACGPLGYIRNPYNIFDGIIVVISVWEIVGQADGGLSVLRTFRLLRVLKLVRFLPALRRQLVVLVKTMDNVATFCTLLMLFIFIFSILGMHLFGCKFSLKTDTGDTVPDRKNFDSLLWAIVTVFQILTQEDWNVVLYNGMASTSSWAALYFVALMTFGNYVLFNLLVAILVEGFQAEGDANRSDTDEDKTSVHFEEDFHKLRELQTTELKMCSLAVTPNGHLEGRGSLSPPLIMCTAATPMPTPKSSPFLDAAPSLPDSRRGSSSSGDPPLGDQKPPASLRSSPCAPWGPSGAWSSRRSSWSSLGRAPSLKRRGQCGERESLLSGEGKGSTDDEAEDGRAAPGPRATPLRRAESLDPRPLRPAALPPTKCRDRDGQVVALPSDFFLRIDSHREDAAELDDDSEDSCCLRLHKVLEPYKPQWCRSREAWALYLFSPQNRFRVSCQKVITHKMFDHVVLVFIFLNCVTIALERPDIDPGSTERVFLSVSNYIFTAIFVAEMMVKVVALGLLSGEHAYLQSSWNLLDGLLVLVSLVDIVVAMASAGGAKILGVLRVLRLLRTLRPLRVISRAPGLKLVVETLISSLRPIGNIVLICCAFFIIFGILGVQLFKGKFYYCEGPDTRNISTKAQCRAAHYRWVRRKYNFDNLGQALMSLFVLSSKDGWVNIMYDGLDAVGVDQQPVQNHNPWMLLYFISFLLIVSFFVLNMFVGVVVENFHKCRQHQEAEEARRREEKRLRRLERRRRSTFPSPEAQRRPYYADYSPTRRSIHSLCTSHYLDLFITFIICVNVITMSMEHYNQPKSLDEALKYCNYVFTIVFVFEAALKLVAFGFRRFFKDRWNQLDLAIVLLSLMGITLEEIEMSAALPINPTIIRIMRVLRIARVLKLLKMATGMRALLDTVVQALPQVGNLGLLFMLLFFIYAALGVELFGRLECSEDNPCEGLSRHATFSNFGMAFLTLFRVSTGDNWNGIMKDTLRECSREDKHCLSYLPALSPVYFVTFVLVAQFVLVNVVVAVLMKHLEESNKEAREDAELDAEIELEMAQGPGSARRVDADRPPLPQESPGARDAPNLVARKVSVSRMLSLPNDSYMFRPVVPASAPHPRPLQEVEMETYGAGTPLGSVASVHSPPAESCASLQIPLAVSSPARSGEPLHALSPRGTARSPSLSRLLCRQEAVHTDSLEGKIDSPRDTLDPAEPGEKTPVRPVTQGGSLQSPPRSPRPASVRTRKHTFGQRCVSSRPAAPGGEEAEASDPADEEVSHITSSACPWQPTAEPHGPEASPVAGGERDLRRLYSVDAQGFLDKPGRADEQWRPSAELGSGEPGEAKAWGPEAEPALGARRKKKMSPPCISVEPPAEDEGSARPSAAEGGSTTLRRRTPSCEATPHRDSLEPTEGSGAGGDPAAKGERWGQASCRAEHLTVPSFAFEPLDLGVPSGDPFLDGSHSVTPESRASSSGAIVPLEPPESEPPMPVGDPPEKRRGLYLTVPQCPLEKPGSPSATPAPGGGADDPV
Cytochrome P450 3A4, sequence (P08684 whole entry): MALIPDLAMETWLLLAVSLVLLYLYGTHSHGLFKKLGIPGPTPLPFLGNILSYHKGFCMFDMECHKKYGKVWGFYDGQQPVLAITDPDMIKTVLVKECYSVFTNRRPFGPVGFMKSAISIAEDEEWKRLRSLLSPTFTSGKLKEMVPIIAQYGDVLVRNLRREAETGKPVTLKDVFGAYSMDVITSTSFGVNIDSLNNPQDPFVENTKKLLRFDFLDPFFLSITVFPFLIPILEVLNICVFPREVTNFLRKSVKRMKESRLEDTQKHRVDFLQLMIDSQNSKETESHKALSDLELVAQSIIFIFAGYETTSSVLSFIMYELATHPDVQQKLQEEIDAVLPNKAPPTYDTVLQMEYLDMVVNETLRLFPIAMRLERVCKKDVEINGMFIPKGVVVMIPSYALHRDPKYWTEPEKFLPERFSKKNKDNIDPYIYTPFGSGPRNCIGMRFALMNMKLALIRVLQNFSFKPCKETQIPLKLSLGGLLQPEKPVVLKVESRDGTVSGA
Cytochrome P450 2C19, sequence (P33261 whole entry): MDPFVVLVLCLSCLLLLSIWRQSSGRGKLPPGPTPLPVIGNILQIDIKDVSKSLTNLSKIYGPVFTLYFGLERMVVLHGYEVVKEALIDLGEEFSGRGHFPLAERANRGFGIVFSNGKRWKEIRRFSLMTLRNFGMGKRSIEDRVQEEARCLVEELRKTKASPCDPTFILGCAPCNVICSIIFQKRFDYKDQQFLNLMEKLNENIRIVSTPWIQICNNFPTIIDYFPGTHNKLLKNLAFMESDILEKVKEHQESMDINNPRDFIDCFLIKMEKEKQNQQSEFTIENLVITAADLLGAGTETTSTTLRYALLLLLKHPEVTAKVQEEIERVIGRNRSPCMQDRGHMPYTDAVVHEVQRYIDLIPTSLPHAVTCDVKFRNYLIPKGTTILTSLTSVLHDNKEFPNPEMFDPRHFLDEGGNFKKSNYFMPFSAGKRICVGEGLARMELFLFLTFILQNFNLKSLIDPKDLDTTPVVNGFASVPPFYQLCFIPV

## CC(O)CCc1ccc(O)cc1 (stereo unspecified)
Large T antigen
  IC50: 25.4 µM (active)

## COc1ccccc1-n1c([S-])c(C(=O)Nc2ccccc2C(F)(F)F)[n+]2ccc(C(=O)NCCO)cc12
[1]
  IC50: 6.82 µM (not active)

## O=S(=O)(c1ccc2c(c1)CCCN2)N1CCCC2CCCCC21 (stereo unspecified)
[1]
  IC50: 12.4 µM (not active)

## O=C1c2ccccc2C(=O)N1CCCCSc1nnnn1-c1ccccc1
[1]
  IC50: 9.41 µM (not active)

## O=C1CC(c2ccccc2)CC(=O)C1=CNc1cccc(Cl)c1 (stereo unspecified)
[2]
  AC50: 4.94 µM (active)
[3]
  AC50: 19.8 µM (active)

## CCC(=O)n1nc(NCc2ccccc2OC)nc1NCc1ccccc1OC
[4]
  EC50: 1.68 µM (active)

## O=C(CSC1=NCCS1)Nc1ccc(S(=O)(=O)N2CCCCCC2)cc1
[5]
  AC50: 21.8 µM (active)
[4]
  EC50: 7.64 µM (active)
Protein RecA
  EC50: 10.1 µM (active)

## COc1ccc(OC)c2sc(N3CCN(C(=O)c4ccc5ncsc5c4)CC3)nc12
Cells [6]
  EC50: > 350 µM (not active)
Cells [7]
  EC50: > 350 µM (not active)

## CC(C)=CC(=O)OCC(=O)NC(=O)NC(C)(C)C
[1]
  IC50: > 50 µM (not active)

## CCNc1nc(NCC)n2c(SC(C(=O)Nc3cc(Cl)cc(Cl)c3)c3ccccc3)nnc2n1 (stereo unspecified)
[8]
  CC50: 6.19 µM (active)
[9]
  EC50: 6.35 µM (active)
[10]
  AC50: 1.59 µM (active)
[11]
  EC50: 5.99 µM (active)

## CCOc1ccc2nc(Cl)c(C3CC(c4ccccc4)=NN3C(=O)c3cccs3)cc2c1 (stereo unspecified)
[9]
  EC50: 3.9 µM (active)
[11]
  EC50: 4.07 µM (active)

## CCCCOc1ccc(C(=O)NCC(=O)OC2CCOC2=O)cc1 (stereo unspecified)
Cells [6]
  EC50: > 350 µM (not active)
Cells [7]
  EC50: > 350 µM (not active)

## COCc1ccc(C(=O)N2CCCC(CCC(=O)NCc3ccccc3F)C2)o1 (stereo unspecified)
Cells [6]
  EC50: > 350 µM (not active)
Cells [7]
  EC50: > 350 µM (not active)

## c1ccc(-c2ccccc2-c2nc(-c3cccnc3)no2)cc1
[4]
  EC50: 8.07 µM (active)

## CC(C)Sc1oc(-c2ccco2)nc1S(=O)(=O)c1ccc(F)cc1
[4]
  EC50: 7.9 µM (active)

## Cc1cccc(OCCCSc2nc3ccccc3[nH]2)c1
[4]
  EC50: 3.47 µM (active)

## CNC(=S)N1CCN(c2ccc(OC)cc2)CC1
Large T antigen
  IC50: 34 µM (active)

## COc1cccc(C2=CC(c3cccs3)n3nnnc3N2)c1 (stereo unspecified)
[1]
  IC50: 1.42 µM (not active)

## COc1ccc(CC(=O)Nc2ccc(-c3noc(-c4cccc(OC)c4)n3)cc2)cc1
Cytochrome P450 3A4
  AC50: 1 µM (inconclusive)
[9]
  EC50: 11.8 µM (active)
Cytochrome P450 2C19
  AC50: 4.47 µM (inconclusive)
[11]
  EC50: 14.9 µM (active)

## COc1cc(CNc2ccc3c(c2)CCC3)cc(OC)c1O
Large T antigen
  IC50: > 100 µM (active)

## CC(=O)Nc1ccc(S(=O)(=O)N2CCc3c(Cl)cccc3C2)cc1
[4]
  EC50: 4.82 µM (active)

## CCOC(=O)C(NC(C)=O)(N1CCOCC1)C(F)(F)F (stereo unspecified)
Cells [6]
  EC50: > 350 µM (not active)
Cells [7]
  EC50: > 350 µM (not active)

## O=C1N=C(NCc2ccccc2)S/C1=C/c1ccc(O)cc1
[12]
  IC50: 18.9 µM (active)
Large T antigen
  IC50: 11.7 µM (active)

## CN(CCS(=O)(=O)c1ccc(Cl)cc1)Cc1cccnc1
Cells [6]
  EC50: > 350 µM (not active)
Cells [7]
  EC50: > 350 µM (not active)

## COc1ccc(-c2cc(C(=O)NC(Cc3cc4ccccc4[nH]3)C(=O)O)c(C)o2)cc1OC (stereo unspecified)
[1]
  IC50: 4.12 µM (not active)

## C[C@@]12C(=O)Nc3ccc(Br)cc3C(=O)N1[C@H]1c3ccccc3OC[C@@H]1[C@@H]2c1ccccc1
[13]
  AC50: 0.427 µM (active)

## COc1ccc(CNC(=S)N/N=C/c2ccc(O)c(OC)c2)cc1
Cells [6]
  EC50: > 350 µM (not active)
Cells [7]
  EC50: > 350 µM (not active)
Large T antigen
  IC50: 27.7 µM (active)

## COc1cc([C@@H]2Oc3cc(C4Oc5cc(O)cc(O)c5C(=O)[C@H]4O)ccc3O[C@H]2CO)ccc1O (stereo partly specified)
Large T antigen
  IC50: 57.5 µM (active)

## Cc1nn(-c2ccc([N+](=O)[O-])cc2)c(O)c1/C=N/CCN1CCN(C(=O)c2cccc(F)c2)CC1
[13]
  AC50: 5.99 µM (active)

## Cc1c(Cl)cccc1NC(=S)N/N=C/c1ccccc1Cl
Cells [6]
  EC50: > 350 µM (not active)
Cells [7]
  EC50: > 350 µM (not active)

## O=C(N/N=C1/CCCc2ccccc21)c1cc([N+](=O)[O-])cc([N+](=O)[O-])c1
[1]
  IC50: 21.8 µM (not active)

## CCO/C(O)=C1\C(C)=NC2=C(C1c1ccc([N+](=O)[O-])cc1)S(=O)(=O)c1ccccc12 (stereo unspecified)
[9]
  EC50: 31.4 µM (active)
[14]
  EC50: 17.8 µM (active)
[15]
  EC50: 17.2 µM (active)
[16]
  EC50: 23.9 µM (active)
[11]
  EC50: 29 µM (active)

## CC(C)(C)CC(C)(C)c1ccc(OCC(=O)N/N=C/c2ccc(S(=O)(=O)O)o2)cc1
[1]
  IC50: > 50 µM (not active)
